Like-named read-outs stand apart in the source and are kept apart here.
Columns and labels:
[1] = test system: TS-negative FSthy21 cells transfected with F225W mutant human TS cDNA; format: cell-based, mouse; conditions: for resistance, IC50 values greater than wild-type transfectants: F225W transfectants vs wild-type transfectants
[2] = test system: TS-negative FSthy21 cells transfected with I108A mutant human TS cDNA; test: Growth inhibition assay (alamar Blue), I108A transfectants; conditions: for resistance, IC50 values greater than wild-type transfectants: I108A transfectants vs wild-type transfectants; for Ratio of IC50 values for mutant/wt cells: FdUrd
Protocol: (§2) The mouse TS-negative FSthy21 cells were used as the host for DNA transfections. This cell line, which is a TS-deficient derivative of mouse FM3A cells, was routinely maintained in MEM medium supplemented with 10% fetal bovine serum and 10×10^−5 M thymidine. Transfections were performed by DOTAP, using 10 μg of DNA/culture. Four days after transfection, cells were placed in selective medium, which contain no thymidine and reduced folate. Colonies having the ability to grow in the absence of thymidine were pooled and propagated as a mass culture.
(§3) Logarithmically growing suspension mouse TS-20 negative FSthy21 cells transfected with wild-type or variant human TS cDNA were seeded in 96-well plates at 1,000 cells/well in 180 μl of complete medium. […] Cell viability was measured by the alamar Blue™ assay. This method incorporates an oxidation-reduction (REDOX) indicator that both fluoresces and changes color in response to chemical reduction of growth medium resulting from cell growth. To above 96-well cultured cells, 25 μl of Alamar Blue (Alamar, Sacramento, Calif.) (10% of incubation volume) were added according to the manufacturer's instructions. The culture 96-well plates were then incubated at 37° C. for 4 hours. Viable cells induce chemical reduction of the media which results in a change in REDOX color from blue to red. The intensity of red color (and fluoresces) is proportional to the viable cells. After incubation, fluorescence is was read at 530-560 nm excitation wavelength and 590 nm emission wavelength by an automated plate reader (model EL340; Bio-Tek). Drug concentrations needed to reduce cell growth by 50% (IC50 values) were determined graphically by plotting of cell growth verses inhibitor concentration.
(§4) The effect of three antifolates and FdUrd on the growth characteristics of transfectants that stably express various TS proteins was evaluated by cytotoxicity studies. Cell growth was measured by the alamar blue assay. IC50 values were calculated as the concentration of inhibitor required to inhibit growth by 50% compared to wild-type transfected cells grown under identical conditions.

Normal Bone Marrow cells = test: CFU-GM assay, Normal Bone Marrow (retroviral vector study); format: cell-based, murine; conditions: 10 days
Excerpt: (§1) The following tables 15-17 summarize additional proof that these mutants confer resistance to chemotherapeutic agents by increasing the number of drug resistant CFU-GM colonies formed by murine bone marrow cells infected with retroviral vectors containing these mutant TS cDNAs.

[3] = test system: murine bone marrow cells infected with Wt TS vector; test: CFU-GM assay, marrow infected with Wt TS retroviral vector; format: cell-based; conditions: 10 days
[4] = test system: murine bone marrow cells infected with G52S mut-TS vector; test: CFU-GM assay, marrow infected with G52S mut-TS retroviral vector; format: cell-based; conditions: 10 days
Excerpt: as §1

HT1080 cells = test: EMS sensitivity of HT1080 cells (colony formation); format: cell-based; conditions: Homo sapiens, HT-1080; 400 μg/ml EMS, 18 hr exposure
Protocol: HT1080 cells were seeded into 6-well plates (100-300 cells/well). After overnight incubation to allow cell attachment, The cells were exposed with EMS for 18 hours, washed three times, and then incubated with EMS-free medium for a further 14 days. The range of EMS concentration tested was 100 to 1000 μg of EMS/ml of culture medium. Colonies formed (50 cells) were stained with crystal violet and counted. The concentration of EMS used for the random mutagenesis experiments was determined based on the number of colonies obtained in the EMS-treated test versus EMS concentrations (Sega, 1984; Fanin et al., 1993).

[5] = test system: TS-negative FSthy21 cells transfected with I108F mutant human TS cDNA; format: cell-based, mouse; conditions: FdUrd; 1108F/clone (2) vs wild-type clone (1)
[6] = test system: TS-negative FSthy21 cells transfected with L221I mutant human TS cDNA; format: cell-based, mouse; conditions: FdUrd; L221I/clone (1) vs wild-type clone (1)
[7] = test system: TS-negative FSthy21 cells transfected with L221S mutant human TS cDNA; format: cell-based, mouse; conditions: FdUrd; L221S/clone (2) vs wild-type clone (1)
[8] = target: TS-negative FSthy21 cells transfected with wild-type human TS cDNA (Homo sapiens, UniProt P04818, P2L, cells depend on it); test: Growth inhibition assay (alamar Blue), TS-negative cells transfected with wild-type human TS cDNA; format: cell-based, mouse; conditions: FdUrd, 7-day exposure, read-out: IC50 values
Chain of TS-negative FSthy21 cells transfected with wild-type human TS cDNA (P04818 whole entry P2L): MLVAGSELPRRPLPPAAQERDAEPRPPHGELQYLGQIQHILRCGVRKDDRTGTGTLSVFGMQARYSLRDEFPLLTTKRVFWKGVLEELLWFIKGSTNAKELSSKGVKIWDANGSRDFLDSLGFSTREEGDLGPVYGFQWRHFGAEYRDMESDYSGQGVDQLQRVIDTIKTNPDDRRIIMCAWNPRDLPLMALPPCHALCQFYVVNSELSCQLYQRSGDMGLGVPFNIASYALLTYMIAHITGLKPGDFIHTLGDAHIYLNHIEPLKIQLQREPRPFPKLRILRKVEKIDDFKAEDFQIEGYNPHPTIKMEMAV

[9] = test system: TS-negative FSthy21 cells transfected with F225L mutant human TS cDNA; format: cell-based, mouse; conditions: FdUrd; F225L/clone (3) vs wild-type clone (1)
[10] = test system: TS-negative FSthy21 cells transfected with D49G mutant human TS cDNA; format: cell-based, mouse
[11] = test system: TS-negative FSthy21 cells transfected with L221A mutant human TS cDNA; format: cell-based, mouse; conditions: FdUrd; L221A/clone (2) vs wild-type clone (1)
[12] = test system: TS-negative FSthy21 cells transfected with K47E mutant human TS cDNA; format: cell-based, mouse; conditions: FdUrd; K47E/clone (2) vs wild-type clone (1)
[13] = test system: TS-negative FSthy21 cells transfected with G52S mutant human TS cDNA; format: cell-based, mouse
[14] = target: TS-negative FSthy21 cells transfected with I108A mutant human TS cDNA (Homo sapiens, UniProt P04818, P2L/I108A, cells depend on it); test: Growth inhibition assay (alamar Blue), I108A transfectants; conditions: read-out: IC50 values, FdUrd, 7-day exposure
Chain of TS-negative FSthy21 cells transfected with I108A mutant human TS cDNA (Homo sapiens, UniProt P04818, P2L/I108A, cells depend on it) (P04818 whole entry P2L/I108A): as the sequence (P04818 whole entry P2L) above, with I108A counted along it
Protocol: as §2, §3, §4

[15] = test system: TS-negative FSthy21 cells transfected with F225Y mutant human TS cDNA; format: cell-based, mouse; conditions: FdUrd; F225Y/clone (1) vs wild-type clone (1)

## Cc1nc2ccc3ccc(CNc4ccc5c(c4)CN([C@@H](CCC(=O)O)C(=O)O)C5=O)cc3c2c(=O)[nH]1
[1]
  resistance, IC50 values greater than wild-type transfectants: 22 fold
[2]
  resistance, IC50 values greater than wild-type transfectants: 6 fold

## O=c1[nH]cc(F)c(=O)[nH]1 [5-FU, 5-fluorouracil]
Normal Bone Marrow cells; 10^−5 M 5-FU
  CFU-C: 0
Normal Bone Marrow cells; 10^−6 M 5-FU
  CFU-C: 16
  CFU-C, % in parentheses: 10%
  HPPCFU-C: 0
[3]; 10^−5 M 5-FU
  CFU-C: 0
[3]; 10^−6 M 5-FU
  CFU-C: 91
  CFU-C, % in parentheses: 54%
  HPPCFU-C: 6
  HPPCFU-C, % in parentheses: 14%
[4]; 10^−5 M 5-FU
  CFU-C: 10
  CFU-C, % in parentheses: 6%
[4]; 10^−6 M 5-FU
  CFU-C: 117
  CFU-C, % in parentheses: 72%
  HPPCFU-C: 21
  HPPCFU-C, % in parentheses: 40%

## CCOS(C)(=O)=O [EMS, Ethylmethanesulfonate]
HT1080 cells
  inhibition at 400 µg/mL: 80%

## O=c1[nH]c(=O)n([C@H]2C[C@H](O)[C@@H](CO)O2)cc1F [FdUrd, 5-fluoro-2′-deoxyuridine]
[5]
  Ratio of IC50 values for mutant/wt cells: 6.1(1)
[1]
  resistance, IC50 values greater than wild-type transfectants: 25 fold
[1]; FdUrd, F225W/clone (2) vs wild-type clone (1)
  Ratio of IC50 values for mutant/wt cells: 25(1)
[6]
  Ratio of IC50 values for mutant/wt cells: 13(1)
[7]
  Ratio of IC50 values for mutant/wt cells: 1.2(1)
[8]; wild-type/clone (1) [161-1]
  GI50: 0.029 ± 0.0003 nM
[8]; wild-type/clone (2) [161-2]
  GI50: 0.0896 ± 0.0062 nM
[8]; wild-type/clone (3) [161-3]
  GI50: 0.0286 ± 0.0002 nM
[9]
  Ratio of IC50 values for mutant/wt cells: 5.7(1)
[10]; D49G transfectants vs wild-type transfectants
  resistance, IC50 values greater than wild-type transfectants: 26 fold
[10]; FdUrd, D49G/clone (1) vs wild-type clone (1)
  Ratio of IC50 values for mutant/wt cells: 26(1)
[11]
  Ratio of IC50 values for mutant/wt cells: 4.0(1)
[12]
  Ratio of IC50 values for mutant/wt cells: 5.7(1)
[13]; FdUrd, G52S/clone (3) vs wild-type clone (1)
  Ratio of IC50 values for mutant/wt cells: 97(1)
[13]; G52S transfectants vs wild-type transfectants
  resistance, IC50 values greater than wild-type transfectants: 97 fold
[14]; 1108A/clone (1) [175-1]
  GI50: 1.4 ± 0.19 nM
[14]; 1108A/clone (2) [175-2]
  GI50: 1.05 ± 0.18 nM
[14]; 1108A/clone (3) [175-3]
  GI50: 1.37 ± 0.25 nM
[2]; 1108A/clone (1) vs wild-type clone (2)
  Ratio of IC50 values for mutant/wt cells: 16(2)^2
[2]; 1108A/clone (2) vs wild-type clone (2)
  Ratio of IC50 values for mutant/wt cells: 12(2)
[2]; 1108A/clone (3) vs wild-type clone (2)
  Ratio of IC50 values for mutant/wt cells: 15(2)
[2]
  resistance, IC50 values greater than wild-type transfectants: 12 fold
[15]
  Ratio of IC50 values for mutant/wt cells: 1.0(1)
